A word on the melting point: it is the temperature of the solid-liquid transition. `O=C(CC(NC(=O)OCc1ccccc1)c1ccccc1)Nc1n[nH]c(=S)s1` (configuration not stated) yielded a melting point of 222 to 223 °C.

In the case of `O=CC1CCc2[nH]c3ccc(F)cc3c2C1` (configuration not stated), the melting point was in the range of 96 to 98 °C.

In turn, `Cc1ccc(O)c(C)c1O` registered a melting point of 102 to 104 °C.

Molecule `FC(F)(F)Oc1cccc(COc2cccc(-c3nnc(Nc4ccc(Cl)c(Cl)c4)s3)c2)c1` returned a melting point of 166 to 167 °C.

Molecule `Oc1ccc(F)cc1C=C(Cl)Cl` came in with a melting point of 55 to 57 °C.

`COC(=O)Nc1nc2cc(S(=O)CC3CCCCC3)ccc2[nH]1` (configuration not stated) registered a melting point of 272 to 274 °C.

Take `Cn1cc(CS(C)=O)c(=O)c2ccc(C(F)(F)F)cc21` (configuration not stated): the melting point fell in the range of 208 to 210 °C.

The molecule `OC1CSC(Oc2cccc(-c3ccc(Cl)nc3)c2)C(O)C1O` (configuration not stated) yielded a melting point of 189 °C.

Regarding `Cc1ccc(C(C)CC(=O)NC(C)c2ccc(NS(C)(=O)=O)c(F)c2)cc1C` (configuration not stated), the melting point was in the range of 152 to 154 °C.

Take `CCOC(=O)N1CCc2nnc(NN)cc2C1`: the melting point lay in the range of 145 to 147 °C.

With `Cc1nc2c(N)nc3ccccc3c2n1CC(C)(C)C(N)=O`, the melting point is 284 to 287 °C.

Consider `Cc1oc(-c2ccccc2)nc1CC#Cc1ccc(CC(C(=O)O)c2cccc(-c3ccccc3)c2)cc1` (configuration not stated), for which the melting point was 105 to 107 °C.

On to `CC1(O)CC=C2C3CCC4=CC(=O)CCC4C3C(c3ccc(-c4ccoc4)cc3)CC21C` (configuration not stated), for which the melting point was in the range of 198 to 199 °C.

`CC(COc1ccccc1)C1SC(=O)NC1=O` (configuration not stated) showed a melting point of 106 to 108 °C.

In turn, `Cc1cc(C)cc(C(=O)c2c(C(C)C)c(=O)[nH]c(=O)n2C/C=C/CN=[N+]=[N-])c1` registered a melting point of 126 to 127 °C.

Molecule `CCC(C)NCC(O)COc1ccc2c(=O)c(-c3ccccc3)c(-c3ccccc3)oc2c1` (configuration not stated) showed a melting point of 139 to 140 °C.

For the molecule `Cn1cccc1C(=O)CS(C)=O` (configuration not stated), the melting point lay in the range of 74 to 76 °C.

Regarding `O=C1CC(c2ccccc2)Cc2[nH]ccc21` (configuration not stated), the melting point lay in the range of 187 to 189 °C.

The molecule `O=C(O)c1ccccc1Oc1ccccc1C1CCCCC1` came in with a melting point of 109 to 123 °C.

In the case of `O=C(N[C@H]1CC[C@H](CCN2CCN(c3nccc4c3CCO4)CC2)CC1)c1ccc2ncccc2c1`, the melting point stood at 227 °C.

The molecule `O=C1CC(c2cccc(-n3ccnc3)c2)=Nc2ccc(-c3ccc(OCc4ccccc4)nc3)cc2N1` yielded a melting point of 225 to 231 °C.

`COc1ccccc1N1CCN(CNC(=O)c2cccc(C)c2)CC1` yielded a melting point of 139 to 142 °C.

Molecule `Cc1ccc(-c2ccc3c(c2)C=C(C(=O)Nc2ccc(CN(C)C4CCOCC4)cc2)CCO3)cc1` registered a melting point of 162 to 163 °C.

In the case of `Cc1ccn2c(CN(C)C)c(-c3ccc4sc(=O)n(C)c4c3)nc2c1`, the melting point was in the range of 167 to 168 °C.

`CN1C(=O)NC(N)C1=O` (configuration not stated) came in with a melting point of 122 to 125 °C.

Take `CCCCCCCCCCCCCCCCSCC(CNS(=O)(=O)CCCCl)n1nnnc1C` (configuration not stated): the melting point fell in the range of 62 to 62.5 °C.

The molecule `Nc1ccc(C(=O)N2CCC(c3[nH]nc4c3C(=O)c3c(NC(=O)NN5CCOCC5)cccc3-4)CC2)cc1` had a melting point of 198 to 200 °C.

As to `C=CCONC(=O)c1nc(-c2ccc(Cl)c(OC)c2F)nc(N)c1Cl`, the melting point lay in the range of 159 to 161 °C.

In turn, `Nc1cc(-c2ccccc2)c(S(N)(=O)=O)cc1S(N)(=O)=O` registered a melting point of 197 to 198 °C.

As for `CCCCOCCOc1ccc(-c2ccc3c(c2)C=C(C(=O)Nc2ccc(SCc4nncn4CCC)c(C(F)(F)F)c2)CCN3CC(C)C)cc1`, the melting point was 131 to 133 °C.

Consider `CC(C)(C)c1ccc(C(=O)Nc2cc(OCCCO/N=C/c3cn(Cc4ccccc4)c4ccccc34)ccc2C(=O)O)cc1`, for which the melting point is 181 to 182 °C.

In turn, `COc1cc(CNc2c(NC(C)(C)C)c(=O)c2=O)cc(OC)c1` displayed a melting point of 222 to 223 °C.

`CCCCCCCCCCCCCCCC(=O)N[C@@H](CSC(=O)CCCCCCCCCCCCCCC)C(=O)O` had a melting point of 82 to 84 °C.

On to `CC(C)c1nc(CN2C(=O)C3(COc4cc5c(cc43)OCO5)c3c(Cl)cccc32)cs1` (configuration not stated), for which the melting point was in the range of 147 to 148 °C.

`Cc1[nH]c(-c2ccccc2)c(N)c1C(=O)c1ccccc1Cl` had a melting point of 214 to 216 °C.

As for `CCOC(=O)c1c(N2CCN(C(=O)c3cccs3)CC2)c2sccc2n(Cc2cccc(F)c2)c1=O`, the melting point lay within 95 to 113 °C.

Molecule `CC(C)NC(=O)c1nc(-c2ccccc2)c(-c2ccc(=O)n(C)n2)s1` registered a melting point of 154 °C.

For `COc1ccc2c([N+](=O)[O-])c(-c3ccc(OCc4ccccc4)cc3)[nH]c(=O)c2c1`, the melting point was 252 to 254 °C.

In turn, `CN(C(=O)Nc1nc(OCC(F)(F)F)nc(OCC(F)(F)F)n1)c1ccc(C(F)(F)F)cc1` registered a melting point of 130 to 132 °C.

The molecule `CC1(C)CON(Cc2ccc(NC(=O)c3ncccc3C(=O)O)cc2Cl)C1=O` showed a melting point of 94 to 96 °C.

`CN1CCN(c2ccc(Nc3ncc4ccc(-c5cccc6c5OCCO6)n4n3)cc2)CC1`: the melting point was in the range of 212 to 213 °C.

For `CC(C)(C)OC(=O)N1CCCC(CO)(c2ccccc2)C1` (configuration not stated), the melting point fell in the range of 101 to 104 °C.

Consider `CCOC(=O)c1cc2c3n(ccc-2n1)CC(C(C)(C)C)=N3`, for which the melting point was 276 to 278 °C.

As for `COc1cc(CC(=O)NCCCc2ccc(C)c(C)c2)ccc1OCCO`, the melting point was in the range of 119 to 120 °C.

`Cc1cccc(C(=O)NC(C)C)c1N(C(=O)c1cc(C(F)(F)F)[nH]n1)c1ncccc1Cl`: the melting point fell in the range of 194 to 195 °C.

Regarding `O=C1NC(c2ccccc2)(c2ccccc2)C(=O)N1COCc1ccccc1`, the melting point was in the range of 151 to 152 °C.

Turning to `CSCOC1CCC2C3CCC4=CC(=O)C=CC4(C)C3(F)C(O)CC12C` (configuration not stated), the melting point was in the range of 224 to 225 °C.

As for `COc1ncccc1-c1[nH]c2ccccc2c1C1CCNCC1`, the melting point lay within 110 to 115 °C.

Consider `COC(OC)C(=O)CC(C)(C)C(Cc1c(C)c(Br)cn1S(=O)(=O)c1ccc(C)cc1)[N+](=O)[O-]` (configuration not stated), for which the melting point is 114 to 115 °C.

Take `Nc1nc(C(=O)N2CCN(Cc3ccc4c(c3)OCO4)CC2)c(-c2ccncc2)s1`: the melting point fell in the range of 216 to 217 °C.

In turn, `CCN(Cc1cc(Cl)ccc1OCC(C)C)c1ccc(C(=O)O)nn1` came in with a melting point of 132 to 134 °C.

Molecule `O=C(O)CCc1cnoc1-c1ccc(F)c(F)c1` showed a melting point of 102 to 103 °C.

In the case of `Nc1cc(-c2ncnc(C(F)F)c2Cl)c(F)cc1Cl`, the melting point was in the range of 106 to 108 °C.

`NNc1nc(Cl)nc2ccccc12` gave a melting point greater than 280 °C.

`CCNS(=O)(=O)/C=C/C1=C(C)NC(C)=C(C(=O)OC(C)C)C1c1cccc([N+](=O)[O-])c1` (configuration not stated) registered a melting point of 187 to 189 °C.

In the case of `CCc1cc(=O)n(-c2cc3[nH]c(=O)sc3cc2F)c(=O)n1C`, the melting point was greater than 250 °C.

In turn, `C=CCOc1ccc2c(c1C=NO)OCO2` registered a melting point of 166 to 167 °C.

The molecule `CCOCOC1(C(=O)CO)C(C)CC2C3CC(C)C4=CC(=O)C=CC4(C)C3C(O)CC21C` (configuration not stated) displayed a melting point of 100 to 102 °C.

The molecule `O=C(O)c1ccc(CNS(=O)(=O)c2ccccc2)cc1` displayed a melting point of 223 to 227 °C.

Take `O=C1CCC(N2Cc3c(OCc4cccc(Cl)c4Cl)cccc3C2=O)C(=O)N1` (configuration not stated): the melting point fell in the range of 272 to 274 °C.

Take `CN1CCC(c2c(O)cc(O)c3c(=O)cc(-c4ccc(C(F)(F)F)cc4)oc23)C1CO` (configuration not stated): the melting point worked out at 238 °C.

`COc1ccc(CN2C(=O)N([C@H](C)c3ccccc3)[C@H]3COC(=O)[C@H]32)cc1` showed a melting point of 146 °C.

For `COc1c(C=O)c2cc(Cl)c(Cl)cc2n1C1CC(O)C(CO)O1` (configuration not stated), the melting point lay in the range of 186 to 187 °C.

The molecule `COc1cc(C)c2c(Cl)c(OC)cc([N+](=O)[O-])c2n1` had a melting point of 199 to 200 °C.

In turn, `CCOC(=O)C1C=CC(c2ccccc2)n2c(=O)n(CCl)c(=O)n21` (configuration not stated) came in with a melting point of 145 to 146 °C.

`CCCCn1nc2c(N)nc3c(c2c1CCS(=O)(=O)CCC)CCCC3` registered a melting point of 173 to 175 °C.

Turning to `COc1ccnc(CCc2nc3cc(-c4ccco4)cnc3[nH]2)c1`, the melting point fell in the range of 147 to 148 °C.

Turning to `N#Cc1cnc2sc(-c3cccc(C=O)c3)cc2c1Nc1ccc2[nH]ccc2c1`, the melting point was 221 to 223 °C.

Consider `CCCCCC(=O)Nc1ccnc(-c2ccncc2)n1`, for which the melting point was in the range of 119 to 120 °C.

For the molecule `COc1nc2cc(Cl)c(Cl)c(C#Cc3ccccc3)c2nc1OC`, the melting point lay in the range of 170 to 172 °C.

Take `Cc1cc(NC(=O)C(C)(O)COc2cc(F)cc(F)c2)ccc1[N+](=O)[O-]` (configuration not stated): the melting point lay in the range of 104 to 106 °C.

`CN(C)C(=O)c1ccc(C(=O)O)c(S(=O)(=O)NC(C)(C)C)c1` gave a melting point greater than 260 °C.

`CC1=C(CCOC(=O)C(C)(C)C)C2=C(O)N(I)CN(CCOC(=O)C(C)(C)C)C2=N1` registered a melting point of 155 °C.

`CCCc1c(C(=O)OC)[nH]c2c(C)ccc(Cl)c12` showed a melting point of 109 to 110 °C.

For the molecule `CC1(c2ccc3c(c2)CC(=O)N3CC(F)(F)F)OCCO1`, the melting point fell in the range of 87 to 89 °C.

`CCN(CC)CCC1(C(N)=O)Cc2ccccc2N(CC)c2ccccc21` (configuration not stated) showed a melting point of 95 to 97 °C.

Molecule `OCCc1cc(C(O)CNCCCCCOCCCCc2ccccc2)ccc1O` (configuration not stated) returned a melting point of 65 to 67 °C.

In the case of `O=C(CCl)c1ccc2c(c1)Cc1cc(C(=O)CCl)ccc1S2`, the melting point fell in the range of 175 to 177 °C.

In turn, `COc1ccc(Nc2ccnc3nc(CO)ccc23)cc1` returned a melting point of 275 to 281 °C.

For the molecule `CC(C#N)c1cccc2c(-c3ccccc3)onc12` (configuration not stated), the melting point was in the range of 109 to 112 °C.

Molecule `CCOc1cc2c(cc1S(=O)(=O)NC(=S)NC)C(CNC(=O)c1cc(Cl)ccc1OC)CCO2` (configuration not stated) displayed a melting point of 202 °C.

Consider `Cc1ccc(C2=Nc3ccccc3N=C(N3CCN(C)CC3)C2)cc1`, for which the melting point is 169 to 170 °C.

Molecule `CN1C(=O)NC(=O)C1=O` displayed a melting point of 146 to 149 °C.

Consider `CCC(=O)c1cc(C2(c3cccc(-c4cccnc4F)c3)N=C(N)N(C)C2=O)cn1CC(F)(F)F` (configuration not stated), for which the melting point lay within 108 to 110 °C.

Molecule `COc1cc2c(c(OC)c1)C1=C(CC2)C2=CCC(OC(C)=O)C2(C)CC1` (configuration not stated) registered a melting point of 122 to 124 °C.

The molecule `Cc1c(-n2c(C)ccc2C)cc(CC(C#N)=CNc2ccccc2)cc1-n1c(C)ccc1C` had a melting point of 252 °C.

Molecule `CN(C(=O)Nc1ccccc1)c1cccc(-c2ccc(CC3SC(=O)NC3=O)cc2)c1` (configuration not stated) gave a melting point of 183 °C.

Source of the values: a melting point compilation (Tetko et al.; mined from patent text by program, amines drawn as free bases though some values may be those of a salt).
